One data set concerns the target NaV1.1 (Homo sapiens (Human), UniProt P35498). Nature of the data set: Sodium Influx Assay (Flux), NaV1.1. The data set is classed as cell-based. As to conditions: Trex HEK293 cells, ANG2 dye; arithmetic mean.
The target of another data set is NaV1.5 (Homo sapiens (Human), UniProt Q14524). Nature of the data set: Sodium Influx Assay (Flux), NaV1.5. To be noted: read-out: Flux NaV1.5 IC50; Trex HEK293 cells, ANG2 dye; arithmetic mean.
The next data set concerns the target NaV1.6 (Homo sapiens (Human), UniProt Q9UQD0). The data set can be described thus: Sodium Influx Assay (Flux), NaV1.6. As to conditions: read-out: Flux NaV1.6 IC50; Trex HEK293 cells, ANG2 dye; arithmetic mean.

Structures can show the parent of a compound that is named as a salt. Bounds are passed on as bounds.

Sequence of NaV1.5 (Q14524 other isoform, or with tags, fused parts or gaps): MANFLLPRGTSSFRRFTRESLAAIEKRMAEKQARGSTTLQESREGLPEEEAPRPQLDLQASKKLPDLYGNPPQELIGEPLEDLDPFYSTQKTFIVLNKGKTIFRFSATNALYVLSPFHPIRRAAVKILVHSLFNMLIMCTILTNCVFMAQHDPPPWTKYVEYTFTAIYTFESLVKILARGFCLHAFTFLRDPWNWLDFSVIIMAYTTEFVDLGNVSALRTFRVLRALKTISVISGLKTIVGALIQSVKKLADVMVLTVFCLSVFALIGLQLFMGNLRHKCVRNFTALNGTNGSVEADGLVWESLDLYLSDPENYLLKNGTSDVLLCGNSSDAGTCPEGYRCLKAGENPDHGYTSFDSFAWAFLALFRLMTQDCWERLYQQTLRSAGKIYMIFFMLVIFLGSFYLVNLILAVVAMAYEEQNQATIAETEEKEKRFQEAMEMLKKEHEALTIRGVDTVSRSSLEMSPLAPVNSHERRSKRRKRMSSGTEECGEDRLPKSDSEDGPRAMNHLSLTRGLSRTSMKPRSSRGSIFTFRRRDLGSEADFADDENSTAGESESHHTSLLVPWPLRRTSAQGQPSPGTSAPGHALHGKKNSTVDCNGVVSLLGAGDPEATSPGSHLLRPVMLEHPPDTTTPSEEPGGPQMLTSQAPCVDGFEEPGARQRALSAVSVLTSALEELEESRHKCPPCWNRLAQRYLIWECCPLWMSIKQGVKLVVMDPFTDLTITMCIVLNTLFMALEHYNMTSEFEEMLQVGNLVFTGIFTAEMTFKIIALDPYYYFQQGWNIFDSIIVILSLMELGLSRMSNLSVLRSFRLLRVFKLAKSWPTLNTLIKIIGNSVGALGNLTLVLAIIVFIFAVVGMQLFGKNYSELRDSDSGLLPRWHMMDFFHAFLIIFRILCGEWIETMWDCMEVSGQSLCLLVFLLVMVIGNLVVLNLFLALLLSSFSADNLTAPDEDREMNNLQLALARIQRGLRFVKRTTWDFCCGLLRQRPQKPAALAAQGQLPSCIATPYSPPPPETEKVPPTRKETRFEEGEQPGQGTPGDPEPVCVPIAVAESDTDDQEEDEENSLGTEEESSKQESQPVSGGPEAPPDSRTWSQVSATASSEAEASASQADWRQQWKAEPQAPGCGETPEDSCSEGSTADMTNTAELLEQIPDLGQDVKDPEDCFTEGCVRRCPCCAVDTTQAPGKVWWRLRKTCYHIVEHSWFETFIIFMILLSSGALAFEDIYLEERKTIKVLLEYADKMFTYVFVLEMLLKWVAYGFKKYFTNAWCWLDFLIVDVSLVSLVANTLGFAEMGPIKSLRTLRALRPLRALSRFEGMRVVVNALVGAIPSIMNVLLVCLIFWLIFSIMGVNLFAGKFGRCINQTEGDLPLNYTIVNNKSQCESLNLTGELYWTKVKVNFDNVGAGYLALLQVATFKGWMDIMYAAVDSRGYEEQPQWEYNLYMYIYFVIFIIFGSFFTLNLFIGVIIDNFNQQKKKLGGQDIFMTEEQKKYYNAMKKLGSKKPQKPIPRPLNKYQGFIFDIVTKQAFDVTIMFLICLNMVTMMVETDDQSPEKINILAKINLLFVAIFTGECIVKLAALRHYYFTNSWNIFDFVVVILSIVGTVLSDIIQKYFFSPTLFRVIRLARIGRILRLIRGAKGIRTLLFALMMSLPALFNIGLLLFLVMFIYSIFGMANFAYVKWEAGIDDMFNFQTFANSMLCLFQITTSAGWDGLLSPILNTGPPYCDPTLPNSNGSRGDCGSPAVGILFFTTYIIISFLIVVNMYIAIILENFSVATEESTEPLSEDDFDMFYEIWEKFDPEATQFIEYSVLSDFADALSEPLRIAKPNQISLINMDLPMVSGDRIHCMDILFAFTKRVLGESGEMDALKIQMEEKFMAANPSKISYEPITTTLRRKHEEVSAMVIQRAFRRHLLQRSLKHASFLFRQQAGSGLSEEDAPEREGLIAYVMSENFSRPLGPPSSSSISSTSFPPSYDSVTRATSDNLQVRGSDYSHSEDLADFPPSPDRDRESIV

As a reminder, the IC50 is the point on the concentration scale where inhibition reaches its midpoint. With `Cc1cccc(CN2CC[C@@H](Nc3ccc(S(=O)(=O)Nc4nccs4)cc3Cl)C2)c1` [Example 70, (R)-3-chloro-4-((1-(3-methylbenzyl)pyrrolidin-3-yl)amino)-N-(thiazol-2-yl)benzenesulfonamide], the half-inhibitory concentration (IC50) worked out at 3.18 µM at NaV1.1, 4.2 µM on NaV1.5 and 0.664 µM on NaV1.6.
Taken in the same sequence, the figures for `CN(c1cc(F)c(S(=O)(=O)Nc2cscn2)cc1Cl)[C@H]1CCN(Cc2cccc(OC(F)F)c2)C1` [Example 168, (S)-5-chloro-4-((1-(3-(difluoromethoxy)benzyl)-pyrrolidin-3-yl)(methyl)amino)-2-fluoro-N-(thiazol-4-yl)benzene-sulfonamide formate] were 4.17 µM, 5.89 µM and 2.02 µM.
For `Cc1cc(S(=O)(=O)Nc2cscn2)c(F)cc1N(C)[C@H]1CCN(Cc2ccn(C(F)F)n2)C1` [Example 147, (S)-4-((1-((1-(difluoromethyl)-1H-pyrazol-3-yl)methyl)pyrrolidin-3-yl)(methyl)amino)-2-fluoro-5-methyl-N-(thiazol-4-yl)benzenesulfonamide], the IC50 on NaV1.1 is > 30 µM; on NaV1.5, > 30 µM; on NaV1.6, 0.482 µM.
`Cc1cc(S(=O)(=O)Nc2cscn2)c(F)cc1N(C)[C@H]1CCN(Cc2ncc(Cl)s2)C1` [Example 146, (S)-4-((1-((5-chlorothiazol-2-yl)methyl)pyrrolidin-3-yl)(methyl)amino)-2-fluoro-5-methyl-N-(thiazol-4-yl)benzenesulfonamide]: the IC50 was determined as 9.32 µM at NaV1.1, 12.1 µM at NaV1.5 and 4.4 µM on NaV1.6.
The corresponding values for `Cc1cccc(CN2CC[C@H](Nc3cc(F)c(S(=O)(=O)Nc4nccs4)cc3Cl)C2)c1` [Example 86, (S)-5-chloro-2-fluoro-4-(1-(3-methylbenzyl)pyrrolidin-3-ylamino)-N-(thiazol-2-yl)benzenesulfonamide] are 5.37 µM, 12.5 µM and 0.588 µM.
On to `CN(c1cc(F)c(S(=O)(=O)Nc2cscn2)c(F)c1)[C@H]1CCN(Cc2cccc(C(F)F)c2)C1` [Example 287, (S)-4-((1-(3-(difluoromethyl)benzyl)pyrrolidin-3-yl)(methyl)amino)-2,6-difluoro-N-(thiazol-4-yl)benzenesulfonamide 2,2,2-trifluoroacetate], for which the 50% inhibitory concentration (IC50) amounted to 7.81 µM at NaV1.1, 8.26 µM on NaV1.5 and 6.67 µM at NaV1.6.
Regarding `Cc1cc(S(=O)(=O)Nc2cscn2)c(F)cc1N(C)[C@H]1CCN(CCc2ccccc2)C1` [Example 115, (S)-2-fluoro-5-methyl-4-(methyl(1-phenethylpyrrolidin-3-yl)amino)-N-(thiazol-4-yl)benzenesulfonamide], the figures for the IC50 at NaV1.1, on NaV1.5 and at NaV1.6 were 6.75 µM, 19.3 µM and 1.6 µM, respectively.
As for `CN(c1cc(F)c(S(=O)(=O)Nc2cscn2)cc1Cl)[C@H]1CCN(Cc2ccn(C)n2)C1` [Example 183, (S)-5-chloro-2-fluoro-4-(methyl(1-((1-methyl-1H-pyrazol-3-yl)methyl)pyrrolidin-3-yl)amino)-N-(thiazol-4-yl)benzene-sulfonamide], the results for the half-inhibitory concentration (IC50) against NaV1.1, on NaV1.5 and on NaV1.6 were > 30 µM, > 30 µM and 6.93 µM, respectively.
Regarding `CC[C@@H](c1ccccc1Cl)N1CC[C@H](N(C)c2cc(F)c(S(=O)(=O)Nc3cscn3)cc2Cl)C1` [Example 248, 5-chloro-4-(((S)-1-((S)-1-(2-chlorophenyl)propyl)pyrrolidin-3-yl)(methyl)amino)-2-fluoro-N-(thiazol-4-yl)benzenesulfonamide 2,2,2-trifluoroacetate], the IC50 at NaV1.1 was determined as 5.53 µM; at NaV1.5 it was 7.06 µM; at NaV1.6, 3.31 µM.
The corresponding values for `Cc1cc(S(=O)(=O)Nc2cscn2)c(F)cc1N(C)[C@H]1CCN(CC2CCCCC2)C1` [Example 123, (S)-4-((1-(cyclohexylmethyl)-pyrrolidin-3-yl)(methyl)amino)-2-fluoro-5-methyl-N-(thiazol-4-yl)benzenesulfonamide] are 7.48 µM, > 30 µM and 4 µM.
The corresponding values for `CN(c1cc(F)c(S(=O)(=O)Nc2cscn2)cc1Cl)[C@H]1CCN(Cc2cccc(F)c2)C1` [Example 212, (S)-5-chloro-2-fluoro-4-((1-(3-fluorobenzyl)pyrrolidin-3-yl)(methyl)amino)-N-(thiazol-4-yl)benzenesulfonamide] are 10.5 µM, 18.9 µM and 2.14 µM.
Taken in the same sequence, the figures for `Cc1c(N(C)[C@H]2CCN(Cc3cccc(F)c3F)C2)cc(F)c(S(=O)(=O)Nc2cscn2)c1F` [Example 237, (S)-4-((1-(2,3-difluorobenzyl)pyrrolidin-3-yl)(methyl)amino)-2,6-difluoro-3-methyl-N-(thiazol-4-yl)benzenesulfonamide formate] were 8.52 µM, 14.7 µM and 0.064 µM.
As for `Cc1c(OC2CCN(Cc3ccccc3)CC2)ccc(S(=O)(=O)Nc2cscn2)c1F` [Example 299, 4-((1-benzylpiperidin-4-yl)oxy)-2-fluoro-3-methyl-N-(thiazol-4-yl)benzenesulfonamide hydrochloride], the concentration for half-maximal inhibition (IC50) at NaV1.1 was > 30 µM; at NaV1.5, 26.6 µM; on NaV1.6, 0.324 µM.
In the case of `CN(c1cc(F)c(S(=O)(=O)Nc2cscn2)cc1Cl)[C@H]1CCN(Cc2cccc(C(F)F)n2)C1` [Example 160, (S)-5-chloro-4-((1-((6-(difluoromethyl)pyridin-2-yl)methyl)pyrrolidin-3-yl)(methyl)amino)-2-fluoro-N-(thiazol-4-yl)benzenesulfonamide], the IC50 is 26.7 µM against NaV1.1, > 30 µM at NaV1.5 and 1.69 µM at NaV1.6.
Turning to `CN(c1cc(F)c(S(=O)(=O)Nc2cscn2)cc1Cl)[C@H]1CCN(Cc2cccc(Cl)c2F)C1` [Example 205, (S)-5-chloro-4-((1-(3-chloro-2-fluorobenzyl)pyrrolidin-3-yl)(methyl)amino)-2-fluoro-N-(thiazol-4-yl)benzenesulfonamide], the results for the half-inhibitory concentration (IC50) at NaV1.1, on NaV1.5 and at NaV1.6 were 10.3 µM, 8 µM and 1.16 µM, respectively.
The corresponding values for `Cc1cc(S(=O)(=O)Nc2cscn2)c(F)cc1O[C@H]1CCN(Cc2ccccc2)C1` [Example 273, (S)-4-((1-benzylpyrrolidin-3-yl)oxy)-2-fluoro-5-methyl-N-(thiazol-4-yl)benzenesulfonamide 2,2,2-trifluoroacetate] are 22.5 µM, 7.1 µM and 1.99 µM.
The corresponding values for `O=S(=O)(Nc1cscn1)c1ccc(OC2CCN(Cc3cccc(C(F)F)c3)CC2)c(Cl)c1` [Example 232, 3-chloro-4-((1-(3-(difluoromethyl)benzyl)piperidin-4-yl)oxy)-N-(thiazol-4-yl)benzenesulfonamide formate] are 4.6 µM, 3.76 µM and 0.858 µM.
The corresponding values for `CC1(Oc2ccc(S(=O)(=O)Nc3nccs3)cc2Cl)CCN(Cc2cccc(Cl)c2)CC1` [Example 20, 3-chloro-4-((1-(3-chlorobenzyl)-4-methylpiperidin-4-yl)oxy)-N-(thiazol-2-yl)benzenesulfonamide] are 5.93 µM, 6.1 µM and 5.62 µM.
`Cc1ccc(F)c(CN2CC[C@H](N(C)c3cc(F)c(S(=O)(=O)Nc4cscn4)cc3C)C2)n1` [Example 130, (S)-2-fluoro-4-((1-((3-fluoro-6-methylpyridin-2-yl)methyl)pyrrolidin-3-yl)(methyl)amino)-5-methyl-N-(thiazol-4-yl)benzenesulfonamide]: the IC50 was > 30 µM against NaV1.1, 24.2 µM on NaV1.5 and 0.285 µM at NaV1.6.
Taken in the same sequence, the figures for `CN(c1cc(F)c(S(=O)(=O)Nc2cscn2)cc1Cl)[C@H]1CCN(Cc2cccs2)C1` [Example 215, (S)-5-chloro-2-fluoro-4-(methyl(1-(thiophen-2-ylmethyl)pyrrolidin-3-yl)amino)-N-(thiazol-4-yl)benzenesulfonamide] were 27.5 µM, > 30 µM and 5.2 µM.
Taken in the same sequence, the figures for `O=S(=O)(Nc1nccs1)c1ccc(OC2CCN(C3CCCCC3)CC2)c(Cl)c1` [Example 7, 3-chloro-4-((1-cyclohexylpiperidin-4-yl)oxy)-N-(thiazol-2-yl)benzenesulfonamide 2,2,2-trifluoroacetate] were > 30 µM, > 30 µM and 27.3 µM.
Taken in the same sequence, the figures for `CN(c1cc(F)c(S(=O)(=O)Nc2cscn2)cc1C1CC1)[C@H]1CCN(Cc2ccccc2)C1` [Example 289, (S)-4-((1-benzylpyrrolidin-3-yl)(methyl)amino)-5-cyclopropyl-2-fluoro-N-(thiazol-4-yl)benzenesulfonamide 2,2,2-trifluoroacetate] were 7.02 µM, 19.4 µM and 1.27 µM.
As to `CN(c1cc(F)c(S(=O)(=O)Nc2cscn2)cc1Cl)[C@H]1CCN(Cc2ccccc2O)C1` [Example 209, (S)-5-chloro-2-fluoro-4-((1-(2-hydroxybenzyl)pyrrolidin-3-yl)(methyl)amino)-N-(thiazol-4-yl)benzenesulfonamide], the IC50 is 20 µM at NaV1.1, 20.2 µM at NaV1.5 and 2.15 µM at NaV1.6.
Consider `CN(c1cc(F)c(S(=O)(=O)Nc2cscn2)cc1Cl)[C@H]1CCN(Cc2cccc(Cl)c2)C1` [Example 208, (S)-5-chloro-4-((1-(3-chlorobenzyl)pyrrolidin-3-yl)(methyl)amino)-2-fluoro-N-(thiazol-4-yl)benzenesulfonamide], for which the IC50 is 4.41 µM at NaV1.1, 5.69 µM at NaV1.5 and 1.09 µM on NaV1.6.

Values taken from patent US10246453B2, “Benzenesulfonamide compounds and their use as therapeutic agents” (Xenon Pharmaceuticals Inc., priority 2016, dated 2019).
